The source of these data is ChEMBL document CHEMBL2424578, “Synergistic effects of berberines with antibiotics on clinical multi-drug resistant isolates of methicillin-resistant Staphylococcus aureus (MRSA)” (2013).

Holding throughout (format): functional
In assay [1] the test system is Staphylococcus aureus. The experiment in a line: Antibacterial activity against SCCmec type 3 genotype-positive and methicillin-resistant Staphylococcus aureus clinical isolates after 24 hrs by chequerboard method in presence of levofloxacin.
Assay [2] concerns Staphylococcus aureus. Description: Antibacterial activity against SCCmec type 3 genotype-positive and methicillin-resistant Staphylococcus aureus clinical isolates after 24 hrs by chequerboard method in presence of cefazolin.
The subject of assay [3] is Staphylococcus aureus. The experiment in a line: Antibacterial activity against SCCmec type 3 genotype-positive and methicillin-resistant Staphylococcus aureus clinical isolates after 24 hrs by chequerboard method in presence of azithromycin.
Assay [4] has as its system Staphylococcus aureus. Description: Antibacterial activity against SCCmec type 3 genotype-positive and methicillin-resistant Staphylococcus aureus clinical isolates after 24 hrs by chequerboard method in presence of ampicillin.
The subject of assay [5] is Staphylococcus aureus. The experiment in a line: Antibacterial activity against SCCmec type 3 genotype-positive and methicillin-resistant Staphylococcus aureus clinical isolates after 24 hrs by broth microdilution method.

Values after ≈ are worked out from the molar mass of the structure shown.

As to `COS(=O)(=O)[O-].COc1ccc2c(c1OC)C[N+]1(C)CCc3cc4c(cc3C1=C2)OCO4` (stereo not drawn), in the assay on Staphylococcus aureus [1], the FICI50 was 0.375, the FICI90 was 0.5 and the “fractional inhibitory concentration index (FICI)” value is 0.25. In addition, in the assay with Staphylococcus aureus [2], the FICI50 worked out at 2, the FICI90 turned out to be 2 and the “fractional inhibitory concentration index (FICI)” value is recorded as 1.5. Further, in the assay on Staphylococcus aureus [3], the FICI50 was found to be 0.375, the FICI90 is 0.5 and the “fractional inhibitory concentration index (FICI)” value stood at 0.188. Besides, in the assay on Staphylococcus aureus [4], the FICI50 amounted to 2, the FICI90 is listed as 2 and the “fractional inhibitory concentration index (FICI)” value turned out to be 1.5. In the assay with Staphylococcus aureus [5], the MBC (as a rule, the lowest tested concentration that kills the bacteria rather than only halting them) stood at 256 mg/L and the MIC – broadly, the lowest concentration found to suppress growth – worked out at 64 mg/L.
With `CC1(C)S[C@@H]2[C@H](NC(=O)[C@H](N)c3ccccc3)C(=O)N2[C@H]1C(=O)O` [AMPICILLIN], in the assay on Staphylococcus aureus [5], the minimum bactericidal concentration (MBC) was determined as 64 mg/L (≈ 183 µM).
`CC[C@H]1OC(=O)[C@H](C)[C@@H](O[C@H]2C[C@@](C)(OC)[C@@H](O)[C@H](C)O2)[C@H](C)[C@@H](O[C@@H]2O[C@H](C)C[C@H](N(C)C)[C@H]2O)[C@](C)(O)C[C@@H](C)CN(C)[C@H](C)[C@@H](O)[C@]1(C)O` [AZITHROMYCIN] showed an MIC with Staphylococcus aureus [5] of 2000 mg/L (≈ 2670 µM).
As to `COc1ccc2cc3[n+](cc2c1OC)CCc1cc2c(cc1-3)OCO2.[Cl-]` [BERBERINE CHLORIDE], in the assay with Staphylococcus aureus [1], the FICI50 is 0.5, the FICI90 is on record as 0.75 and the “fractional inhibitory concentration index (FICI)” value is reported as 0.375. In the assay with Staphylococcus aureus [2], the FICI50 is 2, the FICI90 is listed as 2 and the “fractional inhibitory concentration index (FICI)” value is 1.5. Further, in the assay on Staphylococcus aureus [3], the FICI50 was found to be 0.313, the FICI90 is listed as 0.5 and the “fractional inhibitory concentration index (FICI)” value is recorded as 0.25. In the assay on Staphylococcus aureus [4], the FICI50 amounted to 2, the FICI90 worked out at 2 and the “fractional inhibitory concentration index (FICI)” value came to 1.5. Besides, in the assay with Staphylococcus aureus [5], the MBC amounted to 64 mg/L and the MIC was found to be 32 mg/L.
In the assay with Staphylococcus aureus [5], `C[C@H]1COc2c(N3CCN(C)CC3)c(F)cc3c(=O)c(C(=O)O)cn1c23.C[C@H]1COc2c(N3CCN(C)CC3)c(F)cc3c(=O)c(C(=O)O)cn1c23.O` [LEVOFLOXACIN] came in with an MBC of 8 mg/L and an MIC of 2 mg/L.
In turn, `CN[C@H](CC(C)C)C(=O)N[C@H]1C(=O)N[C@@H](CC(N)=O)C(=O)N[C@H]2C(=O)N[C@H]3C(=O)N[C@H](C(=O)N[C@H](C(=O)O)c4cc(O)cc(O)c4-c4cc3ccc4O)[C@H](O)c3ccc(c(Cl)c3)Oc3cc2cc(c3O[C@@H]2O[C@H](CO)[C@@H](O)[C@H](O)[C@H]2O[C@H]2C[C@](C)(N)[C@H](O)[C@H](C)O2)Oc2ccc(cc2Cl)[C@H]1O` [VANCOMYCIN] showed a minimum bactericidal concentration (MBC) with Staphylococcus aureus [5] of 2 mg/L (≈ 1.38 µM).
